Test results published in ChEMBL document CHEMBL4665802, “Design, Synthesis, and Structure-Activity Relationships of Indoline-Based Kelch-like ECH-Associated Protein 1-Nuclear Factor (Erythroid-Derived 2)-Like 2 (Keap1-Nrf2) Protein-Protein Interaction Inhibitors” (J Med Chem, 2020).
The source made the active and inactive calls. The rule behind the calls is not given here.

Key:
[1] = system: H9c2; experiment: Antiinflammatory activity against LPS-induced sepsis in rat H9c2 cells assessed as decrease in secretion of IL-1beta at 1 to 10 uM pretreated for 12 hrs followed by LPS addition measured after 12 hrs by sandwich ELISA; format: functional, cell-based; settings: dose microM 1-10, time 24.0 hrs
[2] = Permeability of the compound at pH 7.4 incubated for 4 hrs by PAMPA; format: ADME; settings: read-out: permeability
[3] = Apparent clearance in rat at 5 mg/kg, iv by LC-MS/MS analysis; format: ADME, organism-based; settings: in vivo
[4] = system: H9c2; experiment: Antioxidant activity against LPS-induced injury in rat H9c2 cells assessed as increase in GSH/GSSG ratio at 0.1 to 10 uM pretreated for 12 hrs followed by LPS addition measured after 12 hrs; format: functional, cell-based; settings: dose microM 0.1-10, time 24.0 hrs
[5] = Half-life in rat at 5 mg/kg, iv by LC-MS/MS analysis; format: ADME, organism-based; settings: in vivo
[6] = target: T1, KEAP1/NRF2 (Rattus norvegicus) (UniProt O54968+P57790); experiment: Inhibition of Keap1-Nrf2 protein-protein interaction in rat H9c2 cells assessed as upregulation of NQO1 expression at 10 uM incubated up to 24 hrs by Western blot; format: cell-based; settings: time hrs <=24
[7] = target: T1, KEAP1/NRF2 (Rattus norvegicus); experiment: Inhibition of Keap1-Nrf2 protein-protein interaction in rat H9c2 cells assessed as upregulation of GCLM expression incubated for 12 hrs by Western blot analysis; format: cell-based; settings: dose microM 0.1-10, time 12.0 hrs
[8] = system: H9c2; experiment: Cytoprotective activity against LPS-induced sepsis in rat H9c2 cells assessed as increase in cell viability pretreated with compound for 12 hrs followed by LPS addition measured after 12 hrs by MTT assay; format: functional, cell-based; settings: dose microM 0.1-10, time 24.0 hrs
[9] = system: Mus musculus; experiment: Antiinflammatory activity in LPS-stimulated sepsis in C57BL/6 mouse assessed as decrease in IL-6 levels at 10 mg/kg, ip qd administered for 3 days prior to LPS stimulation and measured after 12 hrs by ELISA; format: functional, organism-based; settings: time 3.5 day
[10] = target: T1, KEAP1/NRF2 (Rattus norvegicus); experiment: Inhibition of Keap1-Nrf2 protein-protein interaction in rat H9c2 cells assessed as upregulation of GCLM expression at 10 uM incubated up to 24 hrs by Western blot; format: cell-based; settings: time hrs <=24
[11] = target: T1, KEAP1/NRF2 (Rattus norvegicus); experiment: Inhibition of Keap1-Nrf2 protein-protein interaction in rat H9c2 cells assessed as upregulation of GCLM mRNA expression at 10 uM incubated for 4 to 24 hrs by Trizol reagent based qRT-PCR analysis; format: cell-based; settings: time hrs 4-24
[12] = target: T1, KEAP1/NRF2 (Rattus norvegicus); experiment: Inhibition of Keap1-Nrf2 protein-protein interaction in rat H9c2 cells assessed as upregulation of NQO1 expression incubated for 12 hrs by Western blot analysis; format: cell-based; settings: dose microM 0.1-10, time 12.0 hrs
[13] = system: Mus musculus; experiment: Antiinflammatory activity in LPS-stimulated sepsis in C57BL/6 mouse assessed as decrease in TNFalpha levels at 10 mg/kg, ip qd administered for 3 days prior to LPS stimulation and measured after 12 hrs by ELISA; format: functional, organism-based; settings: time 3.5 day
[14] = system: Mus musculus; experiment: Upregulation of GCLM expression in LPS-stimulated C57BL/6 mouse model of sepsis at 10 to 40 mg/kg, ip qd administered for 3 days prior to LPS stimulation and measured after 12 hrs by Western blot analysis; format: functional, organism-based; settings: dose mg/kg 10-40, time 3.5 day
[15] = system: H9c2; experiment: Upregulation of Nrf2 protein levels in rat H9c2 cells at 10 uM incubated up to 24 hrs by Western blot; format: functional, cell-based; settings: time hrs <=24
[16] = Metabolic stability in human liver microsome assessed as half-life at 1 uM preincubated for 5 mins followed by NADPH addition and measured after 45 mins by LC-MS/MS analysis; format: ADME; settings: liver microsomes
[17] = target: CYP2C9 (Homo sapiens, UniProt P11712); experiment: Inhibition of CYP2C9 (unknown origin) at 10 uM using […] as substrate preincubated for 5 mins followed by NADPH addition and measured after 20 mins by LC-MS/MS analysis relative to control; format: ADME
[18] = system: H9c2; experiment: Antiinflammatory activity against LPS-induced sepsis in rat H9c2 cells assessed as decrease in secretion of TNF-alpha at 1 to 10 uM pretreated for 12 hrs followed by LPS addition measured after 12 hrs by sandwich ELISA; format: functional, cell-based; settings: dose microM 1-10, time 24.0 hrs
[19] = target: T1, KEAP1/NRF2 (Rattus norvegicus); experiment: Inhibition of Keap1-Nrf2 protein-protein interaction in rat H9c2 cells assessed as upregulation of HO1 expression incubated for 12 hrs by Western blot analysis; format: cell-based; settings: dose microM 0.1-10, time 12.0 hrs
[20] = system: H9c2; experiment: Upregulation of Nrf2 mRNA expression in rat H9c2 cells at 10 uM incubated for 4 to 24 hrs by Trizol reagent based qRT-PCR analysis; format: functional, cell-based; settings: time hrs 4-24
[21] = AUC (0 to infinity) in rat at 5 mg/kg, iv by LC-MS/MS analysis; format: ADME, organism-based; design: time infinity, route intravenous, dose 5 mg/kg; settings: in vivo
[22] = system: Mus musculus; experiment: Cardioprotective activity in LPS-stimulated sepsis in C57BL/6 mouse assessed as reduction in heart tissue inflammation at 10 mg/kg, ip qd administered for 3 days prior to LPS stimulation and measured after 12 hrs by hematoxylin and eosin staining based microscopy; format: functional, organism-based; settings: time 3.5 day
[23] = system: H9c2; experiment: Upregulation of Nrf2 protein levels in rat H9c2 cells incubated for 12 hrs by Western blot analysis; format: functional, cell-based; settings: dose microM 0.1-10, time 12.0 hrs
[24] = system: Mus musculus; experiment: Antioxidant activity against LPS-induced injury in C57BL/6 mouse assessed as increase in GSH/GSSG ratio at 10 mg/kg, ip qd administered for 3 days prior to LPS stimulation and measured after 12 hrs; format: functional, organism-based; settings: dose mg/kg 10-40, time 3.5 day
[25] = system: H9c2; experiment: Antiinflammatory activity against LPS-induced sepsis in rat H9c2 cells assessed as decrease in secretion of IL-6 at 1 to 10 uM pretreated for 12 hrs followed by LPS addition measured after 12 hrs by sandwich ELISA; format: functional, cell-based; settings: dose microM 1-10, time 24.0 hrs
[26] = Apparent volume of distribution in rat at 5 mg/kg, iv by LC-MS/MS analysis; format: ADME, organism-based; settings: in vivo, read-out: Vz
[27] = target: T1, KEAP1/NRF2 (Rattus norvegicus); experiment: Inhibition of Keap1-Nrf2 protein-protein interaction in rat H9c2 cells assessed as upregulation of NQO1 mRNA expression incubated for 12 hrs by Trizol reagent based qRT-PCR analysis; format: cell-based; settings: dose microM 0.1-10, time 12.0 hrs
[28] = MRT (0 to infinity) in rat at 5 mg/kg, iv by LC-MS/MS analysis; format: ADME, organism-based; settings: in vivo
[29] = target: CYP2D6 (Homo sapiens, UniProt P10635); experiment: Inhibition of CYP2D6 (unknown origin) at 10 uM using promethazine as substrate preincubated for 5 mins followed by NADPH addition and measured after 20 mins by LC-MS/MS analysis relative to control; format: ADME; settings: probe promethazine
[30] = system: Mus musculus; experiment: Antioxidant activity against LPS-induced injury in C57BL/6 mouse assessed as reduction in ROS levels at 10 to 40 mg/kg, ip qd administered for 3 days prior to LPS stimulation and measured after 12 hrs by H2DCFDA probe based flow cytometry; format: functional, organism-based; settings: dose mg/kg 10-40, time 3.5 day
[31] = system: Mus musculus; experiment: Upregulation of HO1 expression in LPS-stimulated C57BL/6 mouse model of sepsis at 10 to 40 mg/kg, ip qd administered for 3 days prior to LPS stimulation and measured after 12 hrs by Western blot analysis; format: functional, organism-based; settings: dose mg/kg 10-40, time 3.5 day
[32] = system: Mus musculus; experiment: Antiinflammatory activity in LPS-stimulated sepsis in C57BL/6 mouse assessed as decrease in IL-1beta levels at 10 mg/kg, ip qd administered for 3 days prior to LPS stimulation and measured after 12 hrs by ELISA; format: functional, organism-based; settings: time 3.5 day

CYP2D6, sequence (P10635 whole entry): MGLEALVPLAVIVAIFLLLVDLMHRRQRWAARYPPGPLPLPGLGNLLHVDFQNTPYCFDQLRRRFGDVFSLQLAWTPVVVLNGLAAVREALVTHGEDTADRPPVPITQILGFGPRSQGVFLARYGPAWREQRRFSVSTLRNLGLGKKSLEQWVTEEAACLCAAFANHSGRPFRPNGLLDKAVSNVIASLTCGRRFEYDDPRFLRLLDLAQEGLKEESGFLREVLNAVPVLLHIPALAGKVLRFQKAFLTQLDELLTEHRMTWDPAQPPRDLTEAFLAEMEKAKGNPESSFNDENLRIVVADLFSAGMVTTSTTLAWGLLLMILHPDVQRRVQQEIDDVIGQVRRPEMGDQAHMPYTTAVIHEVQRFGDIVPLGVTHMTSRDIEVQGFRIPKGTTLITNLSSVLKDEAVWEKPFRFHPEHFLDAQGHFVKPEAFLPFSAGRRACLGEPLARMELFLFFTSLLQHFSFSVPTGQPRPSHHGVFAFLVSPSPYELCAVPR
CYP2C9, sequence (P11712 whole entry): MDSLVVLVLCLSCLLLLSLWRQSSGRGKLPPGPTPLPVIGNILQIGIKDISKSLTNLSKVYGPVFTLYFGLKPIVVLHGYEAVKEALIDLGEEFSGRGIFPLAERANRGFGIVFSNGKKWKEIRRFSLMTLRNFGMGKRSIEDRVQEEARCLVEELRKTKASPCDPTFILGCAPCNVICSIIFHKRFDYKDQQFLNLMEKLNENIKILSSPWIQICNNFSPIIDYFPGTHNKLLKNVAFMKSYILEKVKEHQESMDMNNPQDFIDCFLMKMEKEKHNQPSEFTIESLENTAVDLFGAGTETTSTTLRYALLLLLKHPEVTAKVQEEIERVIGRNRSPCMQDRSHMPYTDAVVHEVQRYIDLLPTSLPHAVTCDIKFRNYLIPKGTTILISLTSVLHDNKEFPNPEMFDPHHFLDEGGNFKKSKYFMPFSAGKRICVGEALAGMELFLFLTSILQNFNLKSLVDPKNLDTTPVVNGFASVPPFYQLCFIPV

## COc1ccc(S(=O)(=O)NC(=O)CN(c2cccc3c2CCN3C(C(=O)NS(=O)(=O)c2ccc(C)cc2OC)c2cccc(OC)c2)S(=O)(=O)c2ccc(OC)cc2)cc1 (configuration not stated)
[1]
  Activity: Active
[2]
  Papp at 4 h: 5.27 ×10⁻⁶ cm/s
[3]
  clearance: 1.83 mL/min/kg
[4]
  Activity: Active
[5]
  half-life: 4.02 h
[6]
  inhibition: Active
[7]
  inhibition: Dose-dependent effect
[8]
  Activity: Dose-dependent effect
[9]
  Activity: Active
[10]
  inhibition: Active
[11]
  inhibition: Active
[12]
  inhibition: Dose-dependent effect
[13]
  Activity: Active
[14]
  Activity: Active
[15]
  Activity: Active
[16]
  half-life at 1 µM: 2.52 h
[17]
  inhibition at 20 min, 10 µM: 30.3%
[18]
  Activity: Active
[19]
  inhibition: Dose-dependent effect
[20]
  Activity: Active
[21]
  AUC(0-inf): 47000 ng·h/mL
[22]
  Activity: Active
[23]
  Activity: Dose-dependent effect
[24]
  Activity: Active
[25]
  Activity: Active
[26]
  Vd: 0.64 L/kg
[27]
  inhibition: Dose-dependent effect
[28]
  MRT inf: 1.1 h
[29]
  inhibition at 20 min, 10 µM: 19.9%
[30]
  Activity: Active
[31]
  Activity: Active
[32]
  Activity: Active
